Key:
[1] = test system: 10 other cyclophilins with reported prolyl isomerase activity; assay: cyclophilin specificity screen: CypD against the other cyclophilins; type: biochemical; details: result in words
From the text: The selectivity of a compound described herein in inhibiting the activity of a first cyclophilin (e.g., CypD) over a second cyclophilin may be measured by the quotient of the IC50 value of the compound in inhibiting the activity of the second cyclophilin over the IC50 value of the compound in inhibiting the activity of the first cyclophilin. The selectivity of a compound described herein in modulating the activity of a first cyclophilin over a second cyclophilin may also be measured by the quotient of the Kd value of an adduct of the compound and the second cyclophilin over the Kd value of an adduct of the compound and the first cyclophilin (e.g., CypD). […] In certain embodiments, selectivity for inhibiting a first cyclophilin over other cyclophilins is measured by Surface Plasmon Resonance (SPR) assays as disclosed in the Examples.
(§1) Following the synthesis of the indicated library members, in vitro inhibition (IC50) assays of these hits were conducted to obtain IC50 inhibitory data. For the IC50 assays, a chymotrypsin coupled PPIase assay using Suc-AAPF-AMC as the peptide substrate was used, whereby isomerization of a peptide substrate Suc-AAPF-AMC from the cis to trans conformation allowed for proteolysis via excess a-chymotrypsin, releasing the C-terminal coumarin fluorophore.
Subsequently, to determine if the compounds could both access the S2 pocket and display CypD specificity, JOMBtrans and compound 49 were screened against the 10 other cyclophilins with reported prolyl isomerase activity. […] Co-crystal structures of JOMBtrans and 49 were solved with CypD.

[2] = biological target: T1, CypG (Homo sapiens, UniProt Q13427); assay: chymotrypsin coupled PPIase assay, CypG inhibition; type: biochemical; details: result in words
T1 sequence (Q13427 1-754): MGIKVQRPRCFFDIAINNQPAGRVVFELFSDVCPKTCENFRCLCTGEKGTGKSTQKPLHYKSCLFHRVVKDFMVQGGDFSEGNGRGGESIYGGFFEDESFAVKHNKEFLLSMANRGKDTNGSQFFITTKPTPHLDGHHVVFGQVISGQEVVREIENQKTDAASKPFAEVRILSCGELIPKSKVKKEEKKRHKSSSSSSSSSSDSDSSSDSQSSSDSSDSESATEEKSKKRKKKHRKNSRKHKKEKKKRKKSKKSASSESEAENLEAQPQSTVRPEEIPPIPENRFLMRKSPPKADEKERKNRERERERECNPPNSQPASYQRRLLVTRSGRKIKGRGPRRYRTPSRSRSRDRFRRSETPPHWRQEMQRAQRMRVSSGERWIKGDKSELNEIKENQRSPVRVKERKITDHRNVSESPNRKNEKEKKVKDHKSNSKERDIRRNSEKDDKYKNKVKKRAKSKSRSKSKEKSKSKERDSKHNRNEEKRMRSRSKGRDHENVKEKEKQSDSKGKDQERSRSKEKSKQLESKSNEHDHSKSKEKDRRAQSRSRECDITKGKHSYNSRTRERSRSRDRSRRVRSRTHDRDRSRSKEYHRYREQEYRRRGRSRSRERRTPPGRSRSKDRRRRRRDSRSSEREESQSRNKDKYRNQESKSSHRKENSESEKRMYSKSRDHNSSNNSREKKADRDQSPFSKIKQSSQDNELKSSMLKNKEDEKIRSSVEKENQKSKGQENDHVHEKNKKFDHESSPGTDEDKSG
Protocol: as §1, with “fluorophore. […] Other non-inhibitor library members were also checked for binding via SPR, but produced the same profile as the prolyl isomerase assay.” for “fluorophore.”
Subsequently, to determine if the compounds could both access the S2 pocket and display CypD specificity, JOMBtrans and compound 49 were screened against the 10 other cyclophilins with reported prolyl isomerase activity. […] Co-crystal structures of JOMBtrans and 49 were solved with CypD. […] Three further H-bonds with the macrocycle's backbone and CypD were observed along with a cation-n interaction. […] The benzyl group on the piperidine ring altered the conformation of the macrocycle to open up two new hydrogen bonding interactions with CypD. […] This improvement in specificity compared to JOMBtrans signified that more CypD specific compounds can be garnered by derivatization into the S2 pocket.

- specificity / selectivity profile for CypD (in words) [1]: improvement in specificity for CypD
Compound: NCCOCCNC(=O)[C@@H]1CCNC(=O)/C=C/C(=O)N2CCC[C@H](C2)C(=O)N[C@@H](Cc2ccc(C(=O)c3ccccc3)cc2)C(=O)NCc2ccccc2CC(=O)N1 [compound 27]
- inhibition of CypG [2]: Almost complete ablation of inhibition profiles

Source: patent publication US20230117680A1, “CYCLOPHILIN D INHIBITORS AND USES THEREOF” (The Broad Institute, Inc., priority 2019, published 2023)
